Measurements: patent US12139472B2, “Inhibitors of advanced glycation end products” (priority 2019, dated 2024)

Key:
CYP3A = assay type: in vitro ADME, human; conditions: HLM
Source text: Compound 5 (PTG-630 free base) and 7 additional compounds for CYP3A P450 inhibition.
Imidazole (and benzimidazole) containing drugs are ubiquitous in pharmacological practice; however, drug-drug interactions (DDI) have been observed with some imidazole-containing classes, such as the antifungal azoles typified by ketoconazole. It is believed that the imidazole moiety accounts for their ability to inhibit CYP3A, the major DDI enzyme that metabolizes up to 50% of common drugs. The compounds of the disclosure incorporate an imidazole moiety attached to a pyridine ring via the imidazole C-2. They all share an imidazo-hydroxypyridine theme that can bind redox metal ions, while differing in the nature of the X side-chain. The potential of the compounds of the disclosure for DDI was evaluated by screening their inhibition of CYP3A.
Two studies were conducted in human liver microsomes (HLM). Lead candidate PTG-630 was tested using the Eurofins G232 panel (Drug Metab Dispos. 2001 January; 29(1):23-9), where inhibition was measured against seven CYP enzymes; CYP3A4 was tested using two different substrates, midazolam and testosterone. In a second study, inhibition of CYP3A4 (midazolam substrate only) was compared for 8 compounds of interest. The test protocol involved one-point measurements in duplicate, where inhibition was measured at a fixed 10 μM concentration of candidate inhibitors. In all cases, the substrate for each CYP enzyme was at a concentration equal to its specific Km value that was independently obtained from an 8-point dose-response study. Based on the observed value for percent inhibition for each test compound, we calculated of an IC50 assuming a competitive mode of inhibition. If percent inhibition for an inhibitor at a concentration of [I] is denoted by P, then: IC50=[I]*(100−P)/P In the single-point assay, [I] is 10 μM. If measured inhibition is 10%, then IC50=10*(100-10)/10=90 μM. […] As discussed in Lin et al. (J Pharm Sci. 2007 September; 96(9):2485-93; doi: 10.1002/jps.20884), CYP inhibition is broadly interpreted as being “potent” if IC50<1 μM, “moderate” if 1 μM<IC50<10 μM, and “weak” if IC50>10 μM.

[1] = Pharmacokinetic study for PTG-630 (IV and PO): plasma, whole blood, tissues, urine; assay type: in vivo, Sprague Dawley rats
Description: The samples were analyzed in two batches with standards and QCs prepared on rat plasma and rat urine. Analyst® 1.6 (SCIEX) software was used for statistical analysis of bioanalytical data. […] Dose samples collected at 0.083 h-6 h postdose were diluted 4 times with SD rat plasma prior to plating. Twenty-four (24) hours plasma samples were assayed without dilution. […] Two sciatic nerve samples were excluded from analysis, due to the insufficient sample size. […] The 12 non-cannulated animals were arbitrarily assigned to groups upon arrival and housed together throughout the experiment. The animals were acclimated to their designated housing for at least 24 hours before the first day of dosing. […] Blood samples were collected via cannula from IV dosed rats or by cardiac stick from PO dosed rats at the specified time points for sampling pharmacokinetics. Blood was collected into K2EDTA tubes. Tubes were mixed gently after blood collection, chilled and centrifuged at 3000 rpm, 4° C. within 30 minutes upon collection. The samples were centrifuged at 4° C. and the resultant plasma separated. […] Urine from Group 1 was collected via polycarbonate tubes from rats placed in drug metabolism cages. Urine was maintained and room temperature through the collection period.

[2] = Preparation of dosing solutions in 0.5% methyl cellulose and 0.1% Tween 20 in water; assay type: physicochemical; conditions: 0.5% methyl cellulose
Description: Compound 5 (PTG-630 free base) and Compound 19 (PTG-630 HCl salt) solutions were prepared in 0.5% methyl cellulose and 0.1% Tween 20 in water for administration to animals by oral gavage (PO).
Compound 5 was administered at 10 mg/kg and 100 mg/kg. […] The solution was vortexed vigorously for minutes and then sonicated in a water bath for 5 min. The solution remained as a thick creamy yellowish suspension at pH 8. The solution for the 10 mg/kg free base dose (2 mg/ml solution) was easier to prepare. […] The final solution that was administered was a clear, light yellowish solution with few small particulates in suspension.
Compound 19 was administered at 10 mg/kg. […] The solution (2 mg/ml) was clear yellowish (although lighter than the Compound 5 solution at 2 mg/ml) with no particulates in suspension. The pH decreased to 3.

[3] = plasma, PO 100 mg/kg vs IV 5 mg/kg

SMILES: Cc1ncc(CN2CCOCC2)c(-c2ncc[nH]2)c1O [PTG-630]
- Estimated IC50 (CYP3A; midazolam, from one-point % inhibition at 10 μM, IC50=[I]*(100−P)/P): — None
- P % inhib (CYP3A; substrate midazolam at Km, Inhib Conc. 1.0E−05 M): −12.1%
- fold decrease in AUClast for PO route over IV route [1, 3]: 4 fold
- fold decrease in mean Cmax for PO route over IV route [1, 3]: 17 fold
- Mean Residence Time (MRT) in plasma, single IV versus PO group ([1]; rat, in vivo): comparable
- bioavailable, PO route, based on AUCinf ([1]; rat, in vivo): < 1%
- increase in the half-life in plasma, IV route in comparison with PO route ([1]; rat, in vivo): 4.25 folds
- terminal phase half-life ([1]; rat, in vivo, iv): 15.8 h
- AUClast ([1]; rat, in vivo, iv, 5 mg/kg): 34000 ng·h/mL
- Cmax ([1]; rat, in vivo, iv, 5 mg/kg): 20,400 ng/mL
- AUC last in liver higher than in plasma ([1]; rat, in vivo, po): 2.6 folds
- Elimination phase half-life (t1/2) ([1]; rat, in vivo, po): 1.35 h
- Half-life ([1]; rat, in vivo, po): 4.53 h
- Tmax in tissues ([1]; rat, in vivo, po): 1 h
- absorption in tissues (in words) ([1]; rat, in vivo, po): rapidly absorbed in tissues without delay
- detection in tissues 24 hours postdose ([1]; rat, in vivo, po): not detectable in any tissue, except plasma
- exposure in kidney higher than in plasma, based on Cmax ([1]; rat, in vivo, po): 3.4 folds
- exposure in liver higher than in plasma, based on Cmax ([1]; rat, in vivo, po): 5.47 folds
- exposure in muscle (lowest) versus plasma ([1]; rat, in vivo, po): comparable to those in plasma
- half-life ([1]; rat, in vivo, po): 3.71 h
- half-life in brain relative to plasma (times higher) ([1]; rat, in vivo, po): 1.3 times
- level of exposure in selected tissues exceeds the exposure in plasma (up to) ([1]; rat, in vivo, po): 3-5 folds
- quantifiable in tissues ([1]; rat, in vivo, po): quantifiable in all tested tissues
- AUClast ([1]; rat, in vivo, po, 100 mg/kg): 8600 ng·h/mL
- blood brain permeability (in words) ([1]; rat, po): indicating blood brain permeability
- dissolution in vehicle ([2]; 2 mg/ml solution (10 mg/kg dose)): few small particles remained
- dissolution in vehicle ([2]; 20 mg/ml solution (100 mg/kg dose)): difficult to dissolve
